Values quoted from earlier work, collected in publication PMC12308805, “Ultrahigh-Throughput Virtual Screening Strategies against PPI Targets: A Case Study of STAT Inhibitors” (Journal of Chemical Information and Modeling, 2025).
Square brackets hold non-standard residues; d marks the D form. Peptide text beside a SMILES is read from it. pY = N[C@@H](Cc1ccc(OP(=O)(O)O)cc1)C(=O)O; Cha = N[C@@H](CC1CCCCC1)C(=O)O; aThr = C[C@H](O)[C@H](N)C(=O)O

Tested on: STAT3
Settings: cited from earlier work

Compound	Type (known STAT3 active)
CC(C)C[C@H](NC(=O)/C=C/c1ccc(OP(=O)(O)O)cc1)C(=O)N1CCC[C@H]1C(=O)N[C@H](C)CCC(N)=O [CHEMBL578635]	Active
CC(C)C[C@H](NC(=O)/C=C/c1ccc(OP(=O)(O)O)cc1)C(=O)N1C[C@H]2C[C@H]2[C@H]1C(=O)N[C@@H](CCC(N)=O)COCc1ccccc1 [CHEMBL583727]	Active
CC(=O)N[C@@H](Cc1ccc(OP(=O)(O)O)cc1)C(=O)N[C@@H](CC(C)C)C(=O)N1CCC[C@H]1C(=O)N[C@H](CCC(N)=O)C(=O)N[C@@H](C(N)=O)[C@H](C)O [CHEMBL160353] (Ac-[pY]LP[dQ][dT]-NH2)	Active

Same assay, conditions: sheet 6QHD_actives_decoys, retrospective screening set for STAT3 SH2 domain (PDB 6QHD); decoys are presumed inactives, not tested; ref DUD-E; cited from earlier work

Compound	Type
COc1cc([C@@H]2OC[C@H]3[C@@H]2CO[C@@H]3c2cc(OC)c(O[C@@H]3O[C@H](CO)[C@@H](O)[C@H](O)[C@H]3O[C@@H]3OC[C@](O)(CO)[C@H]3O)c(OC)c2)cc(OC)c1O [Decoy817]	Inactive (Decoy)
CCOC(=O)[C@@](NC(=O)c1cccc(Cl)c1)(Nc1ccc(S(=O)(=O)Nc2cc(C)nc(C)n2)cc1)C(F)(F)F [Decoy740]	Inactive (Decoy)
CCN(CC)S(=O)(=O)c1ccc(NC(=O)CSc2n[nH]c(N/N=C/c3ccccc3F)n2)cc1 [Decoy890]	Inactive (Decoy)
CCC(CC)C(=O)Nc1cccc(C(=O)Nc2ccc(S(=O)(=O)Nc3nccc(C)n3)cc2)c1 [Decoy917]	Inactive (Decoy)
COCCOC(=O)C1=C(C)NC(SCC(=O)Nc2ccc([N+](=O)[O-])cc2)=C(C#N)[C@@H]1c1ccco1 [Decoy833]	Inactive (Decoy)
CCOC(=O)c1c(NC(=O)c2cc(OC)c(OC)c(OC)c2)sc(C(=O)Nc2ccc(OC)cc2OC)c1C [Decoy754]	Inactive (Decoy)
CC(=O)N[C@@H]1[C@@H](OC(C)=O)[C@H](OC(C)=O)[C@@H](COC(C)=O)O[C@H]1Sc1nnc(-c2ccccc2)n1C(C)C [Decoy955]	Inactive (Decoy)
CS(=O)(=O)SCCNC(=O)[C@H](N)CCCCNC(=O)CCCCCNC(=O)CCCC[C@@H]1SC[C@H]2NC(=O)N[C@H]12 [Decoy749]	Inactive (Decoy)
Cc1ccc(S(=O)(=O)Nc2ccccc2/C=N/CC(O)C/N=C/c2ccccc2NS(=O)(=O)c2ccc(C)cc2)cc1 [Decoy922]	Inactive (Decoy)
CC(=O)OC[C@H]1O[C@@H](Oc2cc(O)cc(O)c2C(=O)CCc2ccc([N+](=O)[O-])cc2)[C@@H](OC(C)=O)[C@H](OC(C)=O)[C@H]1OC(C)=O [Decoy881]	Inactive (Decoy)
CCCOc1ccc([C@@H]2c3c(n[nH]c3-c3cc(C)cc(C)c3O)C(=O)N2CCCOC(C)C)cc1OCC [Decoy897]	Inactive (Decoy)
CCOC(=O)c1[nH]c(C)c(C(=O)OCC(=O)NCC(=O)Nc2ccc(F)c(F)c2F)c1C [Decoy747]	Inactive (Decoy)
O=C(O)C[C@H](NS(=O)(=O)c1cc(S(=O)(=O)N[C@H](CC(=O)O)c2ccccc2)c2cccc3c2c1NC3=O)c1ccccc1 [Decoy892]	Inactive (Decoy)

Same assay, conditions: sheet 6QHD_actives_decoys; known STAT3 actives of the retrospective screening set; ref ChEMBL / literature; cited from earlier work

Compound	Type (known STAT3 active)
CC(=O)N[C@@H](Cc1ccc(OP(=O)(O)O)cc1)C(=O)N[C@@H](CC(C)C)C(=O)N1CCC[C@H]1C(=O)N[C@@H](CCC(N)=O)C(=O)O [CHEMBL382544] (Ac-[pY]LPQ-OH)	Active
CC(=O)N[C@@H](Cc1ccc(OP(=O)(O)O)cc1)C(=O)N[C@@H](CC1CCCCC1)C(=O)N1CCC[C@H]1C(=O)N[C@@H](CCC(N)=O)C(=O)N[C@H](C(N)=O)[C@@H](C)O [CHEMBL371871] (Ac-[pY][Cha]PQT-NH2)	Active
CC(=O)N[C@@H](Cc1ccc(OP(=O)(O)O)cc1)C(=O)N[C@@H](CC(C)C)C(=O)N1CCC[C@H]1C(=O)N[C@@H](CCC(N)=O)C(N)=O [CHEMBL194516] (Ac-[pY]LPQ-NH2)	Active
NC(=O)CC[C@H](NC(=O)[C@@H]1Cc2cccc3c2N1C(=O)[C@@H](NC(=O)/C=C/c1ccc(OP(=O)(O)O)cc1)CC3)C(N)=O [CHEMBL449511]	Active
CC(C)C[C@H](NC(=O)[C@H](Cc1ccc(O)cc1)NC(=O)[C@H]1CCCN1C(=O)CN)C(=O)N1CCC[C@H]1C(=O)N[C@@H](CCC(N)=O)C(=O)N[C@H](C(=O)N[C@H](C(N)=O)C(C)C)[C@H](C)O [CHEMBL2367507] (H-G[dP]YLPQ[aThr]V-NH2)	Active

Same assay, conditions: sheet 6QHD_actives_decoys; retrospective screening set for STAT3 SH2 domain (PDB 6QHD); […]; ref DUD-E; cited from earlier work

Compound	Type
O=C(NCCNc1ccc(C(F)(F)F)cc1[N+](=O)[O-])c1ccc(CSc2ncn[nH]2)cc1 [Decoy448]	Inactive (Decoy)
CSc1cccc(NC(=O)C[C@@H]2SC(N[C@H](c3cccs3)c3c(O)[nH]c(=O)[nH]c3=O)=NC2=O)c1 [Decoy681]	Inactive (Decoy)
CCN1C(=O)[C@@](C)(C(=O)Nc2ccc(S(=O)(=O)Nc3nccs3)cc2)Oc2ccccc21 [Decoy608]	Inactive (Decoy)
COc1ccc(NS(=O)(=O)c2cccc(NS(=O)(=O)c3cccc([N+](=O)[O-])c3)c2)cc1 [Decoy709]	Inactive (Decoy)
Cc1ccc(S(=O)(=O)N[C@]2(C(F)(F)F)C(=O)Nc3c2c(=O)nc(O)n3-c2ccccc2)cc1 [Decoy629]	Inactive (Decoy)

Same assay, conditions: sheet 6QHD_actives_decoys; retrospective screening set for STAT3 SH2 domain (PDB 6QHD); decoys generated with DUD-E and presumed inactive, not tested; ref DUD-E; cited from earlier work

Compound	Type
CCN(CC)S(=O)(=O)c1cccc(-c2nnc(SCC(=O)Nc3cc(C)cc(C)c3)n2N)c1 [Decoy726]	Inactive (Decoy)
CCOc1ccc(S(=O)(=O)NC[C@@H](c2cccnc2)S(=O)(=O)c2ccc(OCC)cc2)cc1 [Decoy534]	Inactive (Decoy)
COC(=O)[C@@H]1O[C@H](OC/C(=N/NC(N)=O)[C@@]2(O)CC[C@@H]3[C@@H]4CC[C@H]5C[C@H](OC(C)=O)CC[C@@]5(C)[C@H]4C(=O)C[C@]32C)[C@@H](OC(C)=O)[C@H](OC(C)=O)[C@H]1OC(C)=O [Decoy340]	Inactive (Decoy)
COc1ccc(/C=N\N=C2/NC(=O)[C@@H](CC(=O)Nc3ccc([N+](=O)[O-])cc3)S2)c(C(=O)O)c1OC [Decoy694]	Inactive (Decoy)
CC[C@@H](C)[C@@H](NC(=O)CNC(=O)CCc1c(C)c2cc3c(C)coc3c(C)c2oc1=O)C(=O)O [Decoy649]	Inactive (Decoy)
C=C(CO[C@H]1[C@H](O)[C@H](CO)O[C@@H](OCC#Cc2ccc(O)c(C(=O)OC)c2)[C@H]1NC(C)=O)C(=O)OCC [Decoy507]	Inactive (Decoy)
NCCCCCCNc1ncnc2c1ncn2[C@@H]1O[C@H](COP(=O)(O)O)[C@@H](OP(=O)(O)O)[C@H]1O [Decoy505]	Inactive (Decoy)
COc1ccc(-c2cc(=O)c3c(O)c(OC)c(O[C@@H]4O[C@H](CO[C@@H]5O[C@@H](C)[C@H](O)[C@@H](O)[C@H]5O)[C@@H](O)[C@H](O)[C@H]4O)cc3o2)cc1 [Decoy661]	Inactive (Decoy)
COc1c([C@@H]2OC[C@H](OC(C)=O)[C@@H](OC(C)=O)[C@H]2OC(C)=O)c(O)cc2oc(-c3ccc(O[C@H]4O[C@@H](CO)[C@@H](O)[C@@H](O)[C@H]4O)cc3)cc(=O)c12 [Decoy411]	Inactive (Decoy)
CC(C)(CO[P@](=O)(O)O[P@](=O)(O)OC[C@H]1O[C@@H](n2cnc3c(N)ncnc32)[C@@H](O)[C@H]1O)[C@H](O)C(=O)NCCC(=O)NCCS [Decoy640]	Inactive (Decoy)
CCOC(=O)[C@@](NC(=O)c1cccc(Cl)c1)(Nc1ccc(S(=O)(=O)Nc2ccc(OC)nn2)cc1)C(F)(F)F [Decoy464]	Inactive (Decoy)
CCNC(=O)COc1ccc(NC(=O)c2cc(S(=O)(=O)NCc3ccco3)ccc2C)cc1 [Decoy477]	Inactive (Decoy)
CC(=O)Nc1ccc(S(=O)(=O)N(CCN2CCOCC2)CC(=O)N(Cc2ccc3c(c2)OCO3)Cc2ccc(C)o2)cc1 [Decoy727]	Inactive (Decoy)
COC(=O)c1cc2c(cc1C(=O)OC)OCCOCCOCCN(Cc1cn(CCOCCOCCO)nn1)CCOCCOCCO2 [Decoy630]	Inactive (Decoy)
COc1ccc(S(=O)(=O)N(CC(=O)Nc2ccccc2C(=O)NCc2ccco2)c2ccc(F)cc2)cc1OC [Decoy480]	Inactive (Decoy)
CCCCOc1ccc([C@H]2C(C(=O)c3nc4c(C)cccn4c3C)=C(O)C(=O)N2CCOC)cc1OC [Decoy346]	Inactive (Decoy)
CC[C@@H]1OC(=O)[C@@H](C)[C@@H](O[C@@H]2C[C@@](C)(OC)[C@H](O)[C@H](C)O2)[C@@H](C)[C@@H](O[C@H]2O[C@@H](C)C[C@@H](N(C)C)[C@H]2O)[C@](C)(O)C[C@@H](C)/C(=N\OCOCCOC)[C@@H](C)[C@@H](O)[C@]1(C)O [Decoy579]	Inactive (Decoy)
CCCCN(CC(=O)Nc1c(-c2ccccc2)c(C)nn1-c1ccc(OC)cc1)C(=O)c1ccc(OC)cc1OC [Decoy368]	Inactive (Decoy)
CO[C@@H]1O[C@@H]2CO[C@@H](c3ccccc3)O[C@H]2[C@H](O[C@@H]2O[C@H](COC(C)=O)[C@H](OC(C)=O)[C@H](OC(C)=O)[C@H]2OC(C)=O)[C@H]1NC(C)=O [Decoy547]	Inactive (Decoy)
COc1cc(/N=N/c2ccc(N)cc2)c(C)cc1/N=N/c1c(S(=O)(=O)O)cc2ccc(N)cc2c1O [Decoy635]	Inactive (Decoy)
CCOC(=O)c1c(NC(=O)[C@@H](C)Sc2nnc(CNC(=O)c3cc(OC)cc(OC)c3)n2C)sc2c1CCC2 [Decoy533]	Inactive (Decoy)
C=CCn1c(CNc2ccc(Cl)cc2)nnc1S[C@@H](C)C(=O)N/N=C/c1ccc([N+](=O)[O-])s1 [Decoy574]	Inactive (Decoy)
CSc1ccc(S(=O)(=O)NCC(=O)OCC(=O)Nc2cccc3nsnc23)cc1[N+](=O)[O-] [Decoy445]	Inactive (Decoy)
CCOC(=O)Cn1nnnc1[C@@H](CC)N(CCc1cccc(C)c1)Cc1cc2cc(OCC)ccc2[nH]c1=O [Decoy609]	Inactive (Decoy)
CCOC(=O)c1[nH]c(C)c(C(=O)C2=C(O)C(=O)N(CCCN(C)C)[C@@H]2c2cc(OC)c(OC)c(OC)c2)c1C [Decoy593]	Inactive (Decoy)
COc1cc(NC(=O)CSc2n[nH]c(N/N=C/c3cc([N+](=O)[O-])ccc3O)n2)ccc1Cl [Decoy500]	Inactive (Decoy)
O=C(CCN(Cc1ccco1)S(=O)(=O)c1ccc(Cl)cc1)NNC(=O)Nc1ccc(OC(F)(F)F)cc1 [Decoy374]	Inactive (Decoy)
